“And” between values parts separate entries of the source, which are not always exact repeats. Identical values can stand only once. Marks after values point to notes of the source that are not given here.
Key:
Assay type in all cases: in vivo, rat
[1] = tested on: rats subjected to li-pilo SE; test: Latency to and frequency of spontaneous seizures by video recording, lithium-pilocarpine model (Example 2)
Method: (§1) All rats received lithium chloride (3 meq/kg, i.p., Sigma, St Louis, Mo., U.S.A.) and about 20 h later, all animals received also methylscopolamine bromide (1 mg/kg, s.c., Sigma) that was administered to limit the peripheral effects of the convulsant. SE was induced by injecting pilocarpine hydrochloride (25 mg/kg, s.c., Sigma) 30 min after methylscopolamine. The effects of increasing doses of TC (RWJ) were studied in 5 groups of rats. […] The control group received vehicle instead of pilocarpine and TC. The rats surviving SE were then injected about 10 h after the first TC injection with a second i.p. injection of 1.25 mg/kg DZP for the DZP group or of the same dose of TC as in the morning and were maintained under a twice daily TC treatment (s.c.) for 6 additional days while DZP rats received a vehicle injection.
The effects of DZP and the 4 doses of TC on epileptogenesis were investigated by daily video recording of the animals for 10 h per day. Video recording was performed for 4 weeks during which the occurrence of the first seizure was noted as well as the total number of seizures over the whole period. Animals were then taken off the video recording system and kept for 4 additional weeks in our animal facilities before they were sacrificed after a total period of 8 weeks of epilepsy.
For neuronal damage and epileptogenesis, statistical analysis between groups was performed by means of a one-way analysis of variance followed by a post-hoc Dunnett or Fisher test using the Statistica software.

[2] = tested on: rats subjected to li-pilo SE; test: Mortality over the first 48 h after lithium-pilocarpine SE (Example 2)
Method: Adult male Sprague-Dawley rats provided by Janvier Breeding Center (Le Genest-St-Isle, France) were housed under controlled, uncrowded standard conditions at 20-22° C. (light/dark cycle, 7.00 a.m.-7.00 p.m. lights on), with food and water available ad libitum. All animal experimentation was performed in accordance with the rules of the European Communities Council Directive of Nov. 24, 1986 (86/609/EEC), and the French Department of Agriculture (License No 67-97).
as §1
A total number of 143 Sprague-Dawley rats weighing 250-330 g were subjected to lithium-pilocarpine (Li-pilo)-induced SE. […] The behavioral characteristics of SE were identical in both li-pilo-DZP and li-pilo-TC groups. Within 5 min after pilocarpine injection, rats developed diarrhea, piloerection and other signs of cholinergic stimulation. […] Recurrent seizures started around 15-20 min after pilocarpine administration. These seizures which associated episodes of head and bilateral forelimb myoclonus with rearing and falling progressed to SE at about 35-40 min after pilocarpine, as previously described (Turski et al., 1989; Dube et al., 2001; Andre et al., 2003). The control group not subjected to SE and receiving lithium and saline was composed of 20 rats.

[3] = tested on: rats subjected to Li-pilo induced SE; test: Quantification of cell densities after lithium-pilocarpine SE (Example 1); details: for cell loss, CA1 pyramidal layer: significant vs pilo-DZP
Method: The effects of increasing doses of the test compound were studied on 3 groups of rats. The animals of the first group received 10 mg/kg of the test compound, i.p., 1 h after the onset of SE (pilo-TC10) while the animals of groups 2 and 3 received 30 and 60 mg/kg of the test compound (pilo-TC30 and pilo-TC60), respectively.
Another group was injected with 2 mg/kg diazepam (DZP, i.m.) at 1 h after the onset of SE. This is a standard treatment to improve animals survival after SE (pilo-DZP). The control group received saline instead of pilocarpine and the test compound (saline-saline). The pilo-test compound rats surviving SE were then injected about 10 h after the first test compound injection with a second i.p. injection of the same dose of the test compound and were maintained under a twice daily treatment with the test compound for 6 additional days. Pilo-DZP received a second injection of 1 mg/kg DZP on the day of SE at about 10 h after the first one. Thereafter, Pilo-DZP and saline-saline rats received twice daily an equivalent volume of saline.
Quantification of cell densities was performed at […] after SE on 8 pilo-DZP, 8 pilo-TC10, 7 pilo-TC30, 7 pilo-TC60, and 6 saline-saline rats. At 14 days after SE, animals were deeply anesthetized with […] pentobarbital (Dolethal®, Vetoquinol, Lure, France. Brains were then removed and frozen. Serial 20 μm slices were cut in a cryostat, air-dried during several days before thionine staining.
Quantification of cell densities was performed with a 10×10 boxes 1 cm^2 microscopic grid on coronal sections according to the stereotaxic coordinates of the rat brain atlas (Paxinos and Watson, 1986, The Rat brain in Stereotaxic Coordinates, 2nd ed. Academic Press, San Diego). Cell counts were performed twice in a blind manner and were the average of at least 3 values from 2 adjacent sections in each individual animal. Counts involved only cells larger than 10 μm, smaller ones being considered as glial cells.
For the comparison of the characteristics of SE in pilo-saline and pilo-test compound animals, a non-paired Student's t-test was used. The comparison between the number of rats seizing in both groups was performed by means of a Chi square test. For neuronal damage, statistical analysis between groups was performed using ANOVA followed by a Fisher's test for multiple comparisons using the Statview software (Fisher R A, 1946a, Statistical Methods for Research Workers (10th edition) Oliver & Boyd, Edinburgh; Fisher R A, 1946b, The Design of Experiments (4th edition) Oliver & Boyd, Edinburgh)

[4] = pilo-DZP compared to saline-saline rats

CN1C(=O)CN=C(c2ccccc2)c2cc(Cl)ccc21 [DZP, diazepam, reference compound]
frequency of spontaneous seizures over four weeks of recording ([1]; DZP and TC30 groups): tendency to be higher | Latency to the first spontaneous seizure ([1]; DZP, 14 animals): 15.5 ± 2.3 days and 15.5 ± 2.34 days | degree of mortality over the first 48 h after SE ([2]; DZP 2.5 mg/kg i.m., group devoted to cell counting at 14 days, 4/11): 36% | degree of mortality over the first 48 h after SE ([2]; DZP 2.5 mg/kg i.m., group devoted to latency to SRS and late cell counting, 1/14): 7% | cell loss, CA1 region of the hippocampus (pyramidal cell layer) [3, 4]: 70% and 75% | cell loss, CA3a [3, 4]: 54% | cell loss, CA3b [3, 4]: 31% | cell loss, dorsal entorhinal cortex layer II [3, 4]: 9% | cell loss, dorsal entorhinal cortex layers III-IV [3, 4]: 15% | cell loss, hilus of the dentate gyrus [3, 4]: 73% | cell loss, lateral thalamic nucleus [3, 4]: 91% | cell loss, mediodorsal thalamic nucleus [3, 4]: 56% | cell loss, piriform cortex layer II [3, 4]: 53% | cell loss, piriform cortex layers III-IV [3, 4]: total | cell loss, ventral entorhinal cortex layer II [3, 4]: totally preserved | cell loss, ventral entorhinal cortex layers III-IV [3, 4]: 44%

NC(=O)OC[C@@H](O)c1ccccc1Cl [Formula 7]
frequency of spontaneous seizures over four weeks of recording ([1]; DZP and TC30 groups): tendency to be higher | rats with short latencies to seizures (shorter than 40 days after SE) ([1]; TC 90 mg/kg, 4/11): 36% | rats with short latencies to seizures (shorter than 40 days after SE) ([1]; TC 120 mg/kg, 1/9): 11% | latency to epilepsy of the long latency subgroup relative to the short latency ([1]; TC 60, 90 and 120 mg/kg, subgroup of 2-4 animals per group): 4-6 times | frequency of spontaneous seizures over four weeks of recording ([1]; TC60, 90 and 120 groups, significant for total or mean number of seizures over the four weeks): lower | rats with short latencies to seizures (shorter than 40 days after SE) ([1]; TC at 30 mg/kg (so in the source), 7/10): 70% | percentage of non-epileptic rats (no seizure over 150 days post-SE) ([1]; at both of the two highest doses of TC (90 and 120 mg/kg)): 45% | Latency to the first spontaneous seizure ([1]; pilo-TC30 (30 mg/kg), 8 animals, listed as TC): 11.6 ± 2.5 days | Latency to the first spontaneous seizure ([1]; pilo-TC60 (60 mg/kg), Long latency subgroup (n = 3)): 76.7 ± 15.6 °° days | Latency to the first spontaneous seizure ([1]; pilo-TC60 (60 mg/kg), Short latency subgroup (n = 7)): 17.4 ± 5.4 days | Latency to the first spontaneous seizure ([1]; pilo-TC90 (90 mg/kg), Long latency subgroup (n = 2)): 52.0 ± 1.0 ° days | Latency to the first spontaneous seizure ([1]; pilo-TC90 (90 mg/kg), Short latency subgroup (n = 4)): 14.8 ± 5.7 days | Latency to the first spontaneous seizure ([1]; pilo-TC120 (120 mg/kg), Long latency subgroup (n = 4)): 84.5 ± 16.7 °° days | Latency to the first spontaneous seizure ([1]; pilo-TC120 (120 mg/kg), Non epileptic subgroup (n = 4), no seizure over 150 days post-SE): 150** °° days | Latency to the first spontaneous seizure ([1]; pilo-TC120 (120 mg/kg), Short latency subgroup (n = 1)): 13.0 days | degree of mortality over the first 48 h after SE ([2]; TC30 (30 mg/kg i.p.), group devoted to cell counting at 14 days, 4/12): 33% | degree of mortality over the first 48 h after SE ([2]; TC30, group devoted to latency to SRS and late cell counting, 3/11): 27% | degree of mortality over the first 48 h after SE ([2]; TC60 (60 mg/kg i.p.), group devoted to cell counting at 14 days, 1/12): 8% | degree of mortality over the first 48 h after SE ([2]; TC60, group devoted to latency to SRS and late cell counting, 0/10): 0% | degree of mortality over the first 48 h after SE ([2]; TC90 (90 mg/kg i.p.), group devoted to cell counting at 14 days, 0/10): 0% | degree of mortality over the first 48 h after SE ([2]; TC90, group devoted to latency to SRS and late cell counting, 0/11): 0% | degree of mortality over the first 48 h after SE ([2]; TC120 (120 mg/kg i.p.), group devoted to cell counting at 14 days, 4/12): 33% | degree of mortality over the first 48 h after SE ([2]; TC120, group devoted to latency to SRS and late cell counting, 0/9): 0% | neuroprotection compared to pilo-DZP rats, ventral entorhinal cortex layers III-IV ([3]; TC60 (60 mg/kg)): 31% | reduction of neuronal damage recorded in pilo-DZP rats, piriform cortex layer II ([3]; TC60 (60 mg/kg)): 41% | reduction of neuronal damage recorded in pilo-DZP rats, piriform cortex layers III-IV ([3]; TC60 (60 mg/kg)): 44% | more damage (worsening of cell loss) compared with pilo-DZP rats, dorsal entorhinal cortex layers III-IV ([3]; pilo-TC10 (10 mg/kg)): 28% | more damage (worsening of cell loss) compared with pilo-DZP rats, ventral entorhinal cortex layers III-IV ([3]; pilo-TC10 (10 mg/kg)): 35% | cell loss, CA1 pyramidal layer ([3]; pilo-TC30 (30 mg/kg)): 35% | cell loss, CA1 pyramidal layer ([3]; pilo-TC60 (60 mg/kg)): 16% | cell loss, hilus of the dentate gyrus ([3]; pilo-test compound animals (10, 30, 60 mg/kg)): 69-72% | reduction of neuronal damage, lateral thalamic nucleus ([3]; test compound 60 mg/kg): 65% | reduction of neuronal damage, mediodorsal thalamic nucleus ([3]; test compound 60 mg/kg): 42% | protection in CA3b ([3]; test compound 60 mg/kg vs pilo-DZP): significantly neuroprotective | protection in the CA3a area ([3]; test compound 10, 30, 60 mg/kg vs pilo-DZP): did not afford any protection

Source: patent US20090137652A1, “METHODS FOR NEUROPROTECTION” (priority 2005, published 2009)
